Reference: PubChem BioAssay AID1963971 (Molecular Pharmacology Branch, DTP, NCI, 2024)
Values joined by “and” are separate entries in the source; they are usually repeats but may differ in a detail not shown here. Equal entries are not always repeated.

Tested on: 953936-095-R-J2-PDC spheroids with HUVEC/MSC, viability
Assay: Anticancer human tumor 953936-095-R-J2-PDC patient-derived cervical squamous cell carcinoma cell line growth inhibition [PI3K]
Settings: for viability, T/C: stronger effect = lower value
Outline: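 Spheroid viability read-out. Co-cultures contained the tumor line plus HUVEC and human MSCs. Each agent was paired with a PI3K inhibitor (inavolisib, alpelisib, duvelisib, copanlisib) across half-log dilutions starting at clinical Cmax, or at 10 microM when Cmax was unknown.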

[1] = curve of first compound, second compound 0.00316 µM
[2] = curve of first compound, second compound 0.01 µM
[3] = curve of first compound, second compound 0.0316 µM
[4] = curve of first compound, second compound 0.1 µM
[5] = curve of first compound, second compound 0.316 µM
[6] = curve of first compound, second compound 1 µM
[7] = second compound 0.00316 µM, first compound 0.0316 µM
[8] = second compound 0.00316 µM, first compound 0.1 µM
[9] = second compound 0.00316 µM, first compound 0.316 µM
[10] = second compound 0.00316 µM, first compound 1 µM
[11] = second compound 0.00316 µM, first compound 3.16 µM
[12] = second compound 0.00316 µM, first compound 10 µM
[13] = second compound 0.01 µM, first compound 0.0316 µM
[14] = second compound 0.01 µM, first compound 0.1 µM
[15] = second compound 0.01 µM, first compound 0.316 µM
[16] = second compound 0.01 µM, first compound 1 µM
[17] = second compound 0.01 µM, first compound 3.16 µM
[18] = second compound 0.01 µM, first compound 10 µM
[19] = second compound 0.0316 µM, first compound 0.0316 µM
[20] = second compound 0.0316 µM, first compound 0.1 µM
[21] = second compound 0.0316 µM, first compound 0.316 µM
[22] = second compound 0.0316 µM, first compound 1 µM
[23] = second compound 0.0316 µM, first compound 3.16 µM
[24] = second compound 0.0316 µM, first compound 10 µM
[25] = second compound 0.1 µM, first compound 0.0316 µM
[26] = second compound 0.1 µM, first compound 0.1 µM
[27] = second compound 0.1 µM, first compound 0.316 µM
[28] = second compound 0.1 µM, first compound 1 µM
[29] = second compound 0.1 µM, first compound 3.16 µM
[30] = second compound 0.1 µM, first compound 10 µM
[31] = second compound 0.316 µM, first compound 0.0316 µM
[32] = second compound 0.316 µM, first compound 0.1 µM
[33] = second compound 0.316 µM, first compound 0.316 µM
[34] = second compound 0.316 µM, first compound 1 µM
[35] = second compound 0.316 µM, first compound 3.16 µM
[36] = second compound 0.316 µM, first compound 10 µM
[37] = second compound 1 µM, first compound 0.0316 µM
[38] = second compound 1 µM, first compound 0.1 µM
[39] = second compound 1 µM, first compound 0.316 µM
[40] = second compound 1 µM, first compound 1 µM
[41] = second compound 1 µM, first compound 3.16 µM
[42] = second compound 1 µM, first compound 10 µM
[43] = curve of first compound, second compound 3.16 µM
[44] = curve of first compound, second compound 10 µM
[45] = second compound 3.16 µM, first compound 0.0316 µM
[46] = second compound 3.16 µM, first compound 0.1 µM
[47] = second compound 3.16 µM, first compound 0.316 µM
[48] = second compound 3.16 µM, first compound 1 µM
[49] = second compound 3.16 µM, first compound 3.16 µM
[50] = second compound 3.16 µM, first compound 10 µM
[51] = second compound 10 µM, first compound 0.0316 µM
[52] = second compound 10 µM, first compound 0.1 µM
[53] = second compound 10 µM, first compound 0.316 µM
[54] = second compound 10 µM, first compound 1 µM
[55] = second compound 10 µM, first compound 3.16 µM
[56] = second compound 10 µM, first compound 10 µM
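Further: spheroids exposed to compounds for seven days before read-out.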

C=CC(=O)N1CCN(c2nc(=O)n(-c3c(C)ccnc3C(C)C)c3nc(-c4c(O)cccc4F)c(F)cc23)C(C)C1 (stereo unspecified) + COc1c(OCCCN2CCOCC2)ccc2c3n(c(=NC(=O)c4cnc(N)nc4)nc12)CCN3
IC50 [1]: > 10000 nM
IC50 [2]: > 10000 nM
IC50 [3]: < 31.6 nM
IC50 [4]: < 31.6 nM
IC50 [5]: < 31.6 nM
IC50 [6]: < 31.6 nM
viability, T/C [7]: 88.7%
viability, T/C [8]: 91%
viability, T/C [9]: 108%
viability, T/C [10]: 106%
viability, T/C [11]: 101%
viability, T/C [12]: 93.1%
viability, T/C [13]: 72.8%
viability, T/C [14]: 79%
viability, T/C [15]: 79.3%
viability, T/C [16]: 84%
viability, T/C [17]: 89.9%
viability, T/C [18]: 91.9%
viability, T/C [19]: 41.4%
viability, T/C [20]: 43.6%
viability, T/C [21]: 44.4%
viability, T/C [22]: 46%
viability, T/C [23]: 51.2%
viability, T/C [24]: 45.1%
viability, T/C [25]: 18.6%
viability, T/C [26]: 18.4%
viability, T/C [27]: 18.4%
viability, T/C [28]: 20.2%
viability, T/C [29]: 20.4%
viability, T/C [30]: 15.2%
viability, T/C [31]: 7.53%
viability, T/C [32]: 7.13%
viability, T/C [33]: 6.33%
viability, T/C [34]: 6.9%
viability, T/C [35]: 6.5%
viability, T/C [36]: 3.82%
viability, T/C [37]: 1.94%
viability, T/C [38]: 1.84%
viability, T/C [39]: 1.67%
viability, T/C [40]: 1.83%
viability, T/C [41]: 1.85%
viability, T/C [42]: 1.04%

CNC(=O)c1ccc(N2C(=S)N(c3ccc(C#N)c(C(F)(F)F)c3)C(=O)C2(C)C)cc1F + CC(Nc1ncnc2nc[nH]c12)c1cc2cccc(Cl)c2c(=O)n1-c1ccccc1
IC50 [3]: > 10000 nM
IC50 [4]: > 10000 nM
IC50 [5]: > 10000 nM
IC50 [6]: > 10000 nM
IC50 [43]: > 10000 nM
IC50 [44]: > 10000 nM
viability, T/C [19]: 97.9%
viability, T/C [20]: 108%
viability, T/C [21]: 100%
viability, T/C [22]: 91.9%
viability, T/C [23]: 103%
viability, T/C [24]: 85.7%
viability, T/C [25]: 94.2%
viability, T/C [26]: 104%
viability, T/C [27]: 108%
viability, T/C [28]: 93%
viability, T/C [29]: 83.2%
viability, T/C [30]: 74.2%
viability, T/C [31]: 111%
viability, T/C [32]: 88.6%
viability, T/C [33]: 92.4%
viability, T/C [34]: 96.3%
viability, T/C [35]: 95.2%
viability, T/C [36]: 70.9%
viability, T/C [37]: 94.3%
viability, T/C [38]: 95.4%
viability, T/C [39]: 83.8%
viability, T/C [40]: 88.9%
viability, T/C [41]: 84.7%
viability, T/C [42]: 78%
viability, T/C [45]: 76.6%
viability, T/C [46]: 83.1%
viability, T/C [47]: 71.8%
viability, T/C [48]: 82.9%
viability, T/C [49]: 82.1%
viability, T/C [50]: 61.2%
viability, T/C [51]: 62.6%
viability, T/C [52]: 67.6%
viability, T/C [53]: 66.6%
viability, T/C [54]: 58.7%
viability, T/C [55]: 58.5%
viability, T/C [56]: 55%

Cn1ncc(Cl)c1-c1cc(C(=O)NC(CN)Cc2cccc(F)c2)sc1Cl (stereo unspecified) + Cc1nc(NC(=O)N2CCCC2C(N)=O)sc1-c1ccnc(C(C)(C)C(F)(F)F)c1
IC50 [3]: 378 nM
IC50 [4]: 392 nM
IC50 [5]: 165 nM
IC50 [6]: < 31.6 nM
IC50 [43]: < 31.6 nM
IC50 [44]: < 31.6 nM
viability, T/C [19]: 76.7%
viability, T/C [20]: 75.7%
viability, T/C [21]: 50.5%
viability, T/C [22]: 32.2%
viability, T/C [23]: 17.5%
viability, T/C [24]: 12.8%
viability, T/C [25]: 79.4%
viability, T/C [26]: 77.3%
viability, T/C [27]: 53.2%
viability, T/C [28]: 28.9%
viability, T/C [29]: 16.6%
viability, T/C [30]: 9.11%
viability, T/C [31]: 60.4%
viability, T/C [32]: 56.8%
viability, T/C [33]: 41.8%
viability, T/C [34]: 23.9%
viability, T/C [35]: 13.9%
viability, T/C [36]: 9.97%
viability, T/C [37]: 43.5%
viability, T/C [38]: 40%
viability, T/C [39]: 32.1%
viability, T/C [40]: 19.2%
viability, T/C [41]: 11.3%
viability, T/C [42]: 6.42%
viability, T/C [45]: 25.1%
viability, T/C [46]: 24%
viability, T/C [47]: 19.2%
viability, T/C [48]: 13.6%
viability, T/C [49]: 8.24%
viability, T/C [50]: 4.61%
viability, T/C [51]: 11.2%
viability, T/C [52]: 10.5%
viability, T/C [53]: 11.5%
viability, T/C [54]: 8.02%
viability, T/C [55]: 4.99%
viability, T/C [56]: 1.1%

Cn1ncc(Cl)c1-c1cc(C(=O)NC(CN)Cc2cccc(F)c2)sc1Cl (stereo unspecified) + CC(Nc1ccc2c(c1)OCCn1cc(N3C(=O)OCC3C(F)F)nc1-2)C(N)=O
IC50 [1]: 618 nM
IC50 [2]: 499 nM
IC50 [3]: 323 nM
IC50 [4]: 181 nM
IC50 [5]: < 31.6 nM
IC50 [6]: < 31.6 nM
viability, T/C [7]: 83.3%
viability, T/C [8]: 84.3%
viability, T/C [9]: 62.6%
viability, T/C [10]: 40.2%
viability, T/C [11]: 19.1%
viability, T/C [12]: 11%
viability, T/C [13]: 90.4%
viability, T/C [14]: 87.3%
viability, T/C [15]: 58.1%
viability, T/C [16]: 35.1%
viability, T/C [17]: 17.7%
viability, T/C [18]: 12.6%
viability, T/C [19]: 78.3%
viability, T/C [20]: 71.3%
viability, T/C [21]: 49.7%
viability, T/C [22]: 27.6%
viability, T/C [23]: 15.5%
viability, T/C [24]: 9.96%
viability, T/C [25]: 66.6%
viability, T/C [26]: 61.7%
viability, T/C [27]: 38.8%
viability, T/C [28]: 25.7%
viability, T/C [29]: 13.6%
viability, T/C [30]: 10.5%
viability, T/C [31]: 36.1%
viability, T/C [32]: 37.1%
viability, T/C [33]: 28%
viability, T/C [34]: 17.1%
viability, T/C [35]: 12.9%
viability, T/C [36]: 7.57%
viability, T/C [37]: 22.1%
viability, T/C [38]: 22.5%
viability, T/C [39]: 18.8%
viability, T/C [40]: 13.8%
viability, T/C [41]: 10.4%
viability, T/C [42]: 5.59%

CCCS(=O)(=O)Nc1ccc(F)c(C(=O)c2c[nH]c3ncc(-c4ccc(Cl)cc4)cc23)c1F + COc1c(OCCCN2CCOCC2)ccc2c3n(c(=NC(=O)c4cnc(N)nc4)nc12)CCN3
IC50 [1]: 5050 nM
IC50 [2]: 4630 nM
IC50 [3]: < 31.6 nM
IC50 [4]: < 31.6 nM
IC50 [5]: < 31.6 nM
IC50 [6]: < 31.6 nM
viability, T/C [7]: 81.3%
viability, T/C [8]: 94.1%
viability, T/C [9]: 85.1%
viability, T/C [10]: 93.1%
viability, T/C [11]: 83.7%
viability, T/C [12]: 0.64%
viability, T/C [13]: 73.6%
viability, T/C [14]: 72.5%
viability, T/C [15]: 73.8%
viability, T/C [16]: 78.4%
viability, T/C [17]: 74.5%
viability, T/C [18]: 0.66%
viability, T/C [19]: 50.7%
viability, T/C [20]: 46%
viability, T/C [21]: 40.8%
viability, T/C [22]: 45.7%
viability, T/C [23]: 37.6%
viability, T/C [24]: 2.52%
viability, T/C [25]: 18.3%
viability, T/C [26]: 17.4%
viability, T/C [27]: 17.1%
viability, T/C [28]: 18.9%
viability, T/C [29]: 17.3%
viability, T/C [30]: 0.92%
viability, T/C [31]: 7.34%
viability, T/C [32]: 5.95%
viability, T/C [33]: 6.85%
viability, T/C [34]: 7.94%
viability, T/C [35]: 7.74%
viability, T/C [36]: 1.13%
viability, T/C [37]: 1.84%
viability, T/C [38]: 1.61%
viability, T/C [39]: 1.73%
viability, T/C [40]: 2.48%
viability, T/C [41]: 2.83%
viability, T/C [42]: 0.45%

C=CC(=O)N1CCN(c2nc(=O)n(-c3c(C)ccnc3C(C)C)c3nc(-c4c(O)cccc4F)c(F)cc23)C(C)C1 (stereo unspecified)
viability, T/C (compound 0.0316 µM): 93.6% [middle of 4 runs]
viability, T/C (compound 0.1 µM): 100% (2×) and 105% and 96.7%
viability, T/C (compound 0.316 µM): 108% [middle of 4 runs]
viability, T/C (compound 1 µM): 121% [middle of 4 runs]
viability, T/C (compound 10 µM): 118% (2×) and 112% and 127%
IC50 (curve of compound): > 10000 nM
